Literature values in paper PMC8679839, “Interleukin‐2‐inducible T‐cell kinase (Itk) signaling regulates potent noncanonical regulatory T cells” (Clinical and Translational Medicine, 2021).

Test system: Tregs
Text: Tregs are critical for the maintenance of tolerance, and transfer of Treg cells can ameliorate GVHD by restoring defective tolerance mechanisms.[41] One of the biggest challenges is to isolate functional Tregs in large numbers for immunotherapy.[42] This challenge is due to the low number of Tregs in peripheral blood.[4] Given their low numbers in the blood, it is difficult to obtain enough Tregs in the clinic for use as a therapy. If the number of collected canTregs and ncTregs could be increased for use in GVHD patients, such patients could be better protected from GVHD and other autoimmune ...

CO[C@H]1C[C@@H]2CC[C@@H](C)[C@@](O)(O2)C(=O)C(=O)N2CCCC[C@H]2C(=O)O[C@H]([C@H](C)C[C@@H]2CC[C@@H](O)[C@H](OC)C2)CC(=O)[C@H](C)/C=C(\C)[C@@H](O)[C@@H](OC)C(=O)[C@H](C)C[C@H](C)/C=C/C=C/C=C/1C [rapamycin]
Treg number after in vitro expansion: increases Tregs
Treg suppressive function after in vitro expansion: reduces suppressive function
